This note sets out measurements from PMC5539802 (2014).

Broadly, the ΔTm is the shift of the melting midpoint relative to a reference.

Assay [1] relates to PS2.M (DNA, G4) GTGGGTAGGGCGGGTTGG
As to the kind of experiment: luminescence enhancement. Particulars: 100 mM K+ (annealing); 1 μM complex, 5 μM DNA; 20 mM Tris-HCl pH 7.0.

The subject of assay [2] is F10T (DNA, hairpin, hexaethylene glycol (HEG) linker between nucleotides 8 and 9) TATAGCTATATAGCTATAT
As to the kind of experiment: FRET melting. Particulars: 10 mM Li+; lithium cacodylate pH 7.4; same complex concentration as F21T.

For assay [3], the system named is F21T (DNA, G4) GGGTTAGGGTTAGGGTTAGGG
As to the kind of experiment: FRET melting. The following applies: 100 mM K+; potassium cacodylate pH 7.0; 200 nM DNA; complex concentration not in material.

The subject of assay [4] is ds17 (DNA, duplex) CCAGTTCGTAGTAACCC/GGGTTACTACGAACTGG
The assay can be described thus: G4-FID thiazole orange displacement. The following applies: Tris-HCl buffer; thiazole orange 0.5 μM displaced; less effective than for Pu27.

Assay [5] concerns ON1-ON2 duplex substrate (DNA, duplex) GTGGGTAGGGCGGGTTGGTGGCGACGGCAGCGAGGCAGAGGAGCAGAGGGAGCA/GCCTCGCTGCCGTCGCCACCAACCCGCCC
As to the kind of experiment: luminescence enhancement. The following applies: 20 mM K+, 150 mM NH4+; 20 mM Tris pH 7.2; 1 μM complex; duplex without helicase unwinding.

The subject of assay [6] is ON1 (DNA, G4) GTGGGTAGGGCGGGTTGGTGGCGACGGCAGCGAGGCAGAGGAGCAGAGGGAGCA
The assay can be described thus: luminescence enhancement. The following applies: 20 mM K+, 150 mM NH4+; 20 mM Tris pH 7.2; 1 μM complex; G-quadruplex released by helicase unwinding of ON1-ON2.

`Clc1cc2cccnc2c2ncccc12.[Ir+3].[c-]1ccccc1-c1ccc2ccccc2n1.[c-]1ccccc1-c1ccc2ccccc2n1`: the binding result in assay [1] was “yes”.
As to `[Ir+3].[c-]1ccccc1-c1ccc2ccccc2n1.[c-]1ccccc1-c1ccc2ccccc2n1.c1cnc2c(c1)ccc1cccnc12`, the thermal shift (ΔTm) is 4 °C in assay [2] and ~ 13 °C in assay [3]. For the same molecule, the binding result in assay [4] is listed as “weak”; in assay [5], “weak”; in assay [1] it was “yes”; in assay [6], “yes”.
